Measured values: article PMC8222254, “Self-assembly of an anion receptor with metal-dependent kinase inhibition and potent in vitro anti-cancer properties” (Nature Communications, 2021)
Values joined by “and” are separate entries in the source; they are usually repeats but may differ in a detail not shown here. Equal values may be shown once.

Columns and labels:
Assay in all cases: Kinase inhibition screen, cell-free 33P ATP assay at 10 μM
Assay type in all cases: biochemical
[1] = target: 140 purified human kinases (Homo sapiens, UniProt P06239); conditions: Lck
Procedure, shortened: (§1)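 Each complex tested in duplicate at 10 μM; cell-free radiometric assay using ^33P ATP on purified enzymes. Hits mapped by HGNC symbol onto the kinome tree.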

[2] = target: 140 purified human kinases (Homo sapiens, UniProt P11362)
Procedure, shortened: as §1

[3] = target: T1, 140 purified human kinases (Homo sapiens, UniProt P54760)
T1 sequence (P54760 16-987): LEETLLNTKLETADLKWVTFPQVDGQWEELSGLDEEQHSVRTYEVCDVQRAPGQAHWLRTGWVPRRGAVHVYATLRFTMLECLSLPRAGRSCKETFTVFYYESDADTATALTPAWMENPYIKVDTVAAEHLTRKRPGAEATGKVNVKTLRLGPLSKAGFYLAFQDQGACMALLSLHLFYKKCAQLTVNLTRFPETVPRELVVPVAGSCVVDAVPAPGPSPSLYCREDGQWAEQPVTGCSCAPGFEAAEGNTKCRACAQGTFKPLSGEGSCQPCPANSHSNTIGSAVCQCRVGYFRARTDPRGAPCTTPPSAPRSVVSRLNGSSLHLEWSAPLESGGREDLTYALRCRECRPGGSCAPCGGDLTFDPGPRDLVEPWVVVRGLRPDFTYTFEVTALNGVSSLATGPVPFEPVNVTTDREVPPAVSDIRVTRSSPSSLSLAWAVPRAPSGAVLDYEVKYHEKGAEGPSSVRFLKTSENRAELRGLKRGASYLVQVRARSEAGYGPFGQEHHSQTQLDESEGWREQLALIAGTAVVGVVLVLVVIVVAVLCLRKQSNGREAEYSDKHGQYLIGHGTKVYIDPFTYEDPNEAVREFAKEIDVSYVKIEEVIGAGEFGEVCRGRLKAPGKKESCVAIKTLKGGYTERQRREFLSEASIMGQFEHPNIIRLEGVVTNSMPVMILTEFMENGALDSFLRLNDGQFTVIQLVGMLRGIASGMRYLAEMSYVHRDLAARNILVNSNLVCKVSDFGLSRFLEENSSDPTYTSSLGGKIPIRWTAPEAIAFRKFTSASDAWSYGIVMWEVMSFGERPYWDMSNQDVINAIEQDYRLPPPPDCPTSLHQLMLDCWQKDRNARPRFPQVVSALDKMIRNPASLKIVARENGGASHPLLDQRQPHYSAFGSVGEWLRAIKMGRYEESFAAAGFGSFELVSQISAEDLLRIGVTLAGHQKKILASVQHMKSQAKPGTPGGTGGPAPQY
Procedure, shortened: as §1

[4] = target: 140 purified human kinases (Homo sapiens, UniProt Q06187); conditions: BTK
Procedure, shortened: as §1

[5] = target: 140 purified human kinases (Homo sapiens, UniProt Q13177)
Procedure, shortened: as §1

[6] = target: 140 purified human kinases (Homo sapiens, UniProt Q5TCY1)
Procedure, shortened: as §1

[7] = target: T2, 140 purified human kinases (Tribolium castaneum, UniProt D6WMX4); conditions: PINK
T2 sequence (D6WMX4 6-570): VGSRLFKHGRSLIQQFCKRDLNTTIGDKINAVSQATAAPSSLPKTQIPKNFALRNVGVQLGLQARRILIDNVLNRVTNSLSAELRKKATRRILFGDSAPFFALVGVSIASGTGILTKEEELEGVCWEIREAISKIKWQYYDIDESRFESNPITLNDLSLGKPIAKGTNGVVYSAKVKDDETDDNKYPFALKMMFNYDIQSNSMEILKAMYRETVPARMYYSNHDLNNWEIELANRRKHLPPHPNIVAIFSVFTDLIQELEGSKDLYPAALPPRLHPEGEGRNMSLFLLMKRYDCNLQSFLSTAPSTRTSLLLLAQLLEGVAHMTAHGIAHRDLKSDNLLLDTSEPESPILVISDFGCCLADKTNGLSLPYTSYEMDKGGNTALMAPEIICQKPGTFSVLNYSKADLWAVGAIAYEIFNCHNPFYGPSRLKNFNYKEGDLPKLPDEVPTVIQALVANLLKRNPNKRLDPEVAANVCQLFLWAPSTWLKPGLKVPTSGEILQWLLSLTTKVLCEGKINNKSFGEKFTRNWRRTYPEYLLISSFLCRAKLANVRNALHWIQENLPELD
Procedure, shortened: as §1

Sequence of 140 purified human kinases (Homo sapiens, UniProt P11362) (P11362 22-822): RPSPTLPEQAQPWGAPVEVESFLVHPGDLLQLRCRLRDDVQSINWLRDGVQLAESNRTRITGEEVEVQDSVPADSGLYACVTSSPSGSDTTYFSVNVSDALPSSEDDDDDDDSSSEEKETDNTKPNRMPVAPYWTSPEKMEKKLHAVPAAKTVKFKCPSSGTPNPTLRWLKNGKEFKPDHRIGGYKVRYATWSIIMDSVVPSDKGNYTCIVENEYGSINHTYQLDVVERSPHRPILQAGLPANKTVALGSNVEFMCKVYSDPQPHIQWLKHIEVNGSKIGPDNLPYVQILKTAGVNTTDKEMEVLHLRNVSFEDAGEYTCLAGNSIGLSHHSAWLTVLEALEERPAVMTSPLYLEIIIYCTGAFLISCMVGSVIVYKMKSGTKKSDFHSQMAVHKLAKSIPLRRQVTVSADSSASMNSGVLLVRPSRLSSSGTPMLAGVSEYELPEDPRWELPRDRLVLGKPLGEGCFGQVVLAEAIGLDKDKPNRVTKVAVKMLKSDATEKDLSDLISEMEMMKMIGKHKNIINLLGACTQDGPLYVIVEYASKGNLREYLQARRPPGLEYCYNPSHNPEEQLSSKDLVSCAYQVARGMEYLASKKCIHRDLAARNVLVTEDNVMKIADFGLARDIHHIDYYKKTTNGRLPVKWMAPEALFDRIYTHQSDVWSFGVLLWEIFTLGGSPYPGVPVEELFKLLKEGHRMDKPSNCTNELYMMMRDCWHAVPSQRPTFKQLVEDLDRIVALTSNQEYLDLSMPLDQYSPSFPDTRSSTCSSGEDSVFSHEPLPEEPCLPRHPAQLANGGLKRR
Sequence of 140 purified human kinases (Homo sapiens, UniProt Q5TCY1) (Q5TCY1 whole entry): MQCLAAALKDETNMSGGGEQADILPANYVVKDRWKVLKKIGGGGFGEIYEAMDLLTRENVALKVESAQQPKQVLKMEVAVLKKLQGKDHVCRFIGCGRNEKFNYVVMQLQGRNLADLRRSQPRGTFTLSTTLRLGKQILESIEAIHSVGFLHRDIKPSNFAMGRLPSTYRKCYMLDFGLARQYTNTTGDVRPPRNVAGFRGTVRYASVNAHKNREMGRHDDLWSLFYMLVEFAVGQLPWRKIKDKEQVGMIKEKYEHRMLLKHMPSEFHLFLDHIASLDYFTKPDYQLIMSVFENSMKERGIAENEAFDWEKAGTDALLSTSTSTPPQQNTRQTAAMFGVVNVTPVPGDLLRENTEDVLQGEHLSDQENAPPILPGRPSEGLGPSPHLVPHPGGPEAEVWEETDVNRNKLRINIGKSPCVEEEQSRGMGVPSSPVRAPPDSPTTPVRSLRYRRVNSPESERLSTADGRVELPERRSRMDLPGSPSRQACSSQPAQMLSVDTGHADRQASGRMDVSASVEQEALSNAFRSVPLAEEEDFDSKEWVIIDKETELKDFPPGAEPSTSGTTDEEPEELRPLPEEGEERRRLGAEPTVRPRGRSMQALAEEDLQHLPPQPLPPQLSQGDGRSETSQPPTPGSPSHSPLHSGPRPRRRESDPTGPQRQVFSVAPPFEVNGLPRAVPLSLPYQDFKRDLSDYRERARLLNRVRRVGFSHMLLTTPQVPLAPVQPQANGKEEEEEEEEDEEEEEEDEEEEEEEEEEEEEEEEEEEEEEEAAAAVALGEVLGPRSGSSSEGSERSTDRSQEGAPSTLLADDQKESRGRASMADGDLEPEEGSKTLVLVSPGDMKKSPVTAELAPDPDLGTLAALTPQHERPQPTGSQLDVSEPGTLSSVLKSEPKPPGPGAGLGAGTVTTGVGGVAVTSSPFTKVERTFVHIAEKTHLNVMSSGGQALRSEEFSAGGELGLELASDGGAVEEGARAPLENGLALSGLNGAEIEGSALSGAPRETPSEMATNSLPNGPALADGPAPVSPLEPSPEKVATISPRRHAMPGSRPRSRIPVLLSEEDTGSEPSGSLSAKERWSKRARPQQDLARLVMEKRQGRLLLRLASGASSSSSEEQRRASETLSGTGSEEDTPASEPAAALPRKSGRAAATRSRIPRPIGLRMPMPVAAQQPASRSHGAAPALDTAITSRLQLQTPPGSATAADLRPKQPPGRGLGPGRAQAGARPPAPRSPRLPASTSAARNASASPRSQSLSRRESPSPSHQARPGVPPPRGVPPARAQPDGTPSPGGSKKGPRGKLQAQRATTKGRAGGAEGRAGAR
Sequence of 140 purified human kinases (Homo sapiens, UniProt Q13177) (Q13177 whole entry): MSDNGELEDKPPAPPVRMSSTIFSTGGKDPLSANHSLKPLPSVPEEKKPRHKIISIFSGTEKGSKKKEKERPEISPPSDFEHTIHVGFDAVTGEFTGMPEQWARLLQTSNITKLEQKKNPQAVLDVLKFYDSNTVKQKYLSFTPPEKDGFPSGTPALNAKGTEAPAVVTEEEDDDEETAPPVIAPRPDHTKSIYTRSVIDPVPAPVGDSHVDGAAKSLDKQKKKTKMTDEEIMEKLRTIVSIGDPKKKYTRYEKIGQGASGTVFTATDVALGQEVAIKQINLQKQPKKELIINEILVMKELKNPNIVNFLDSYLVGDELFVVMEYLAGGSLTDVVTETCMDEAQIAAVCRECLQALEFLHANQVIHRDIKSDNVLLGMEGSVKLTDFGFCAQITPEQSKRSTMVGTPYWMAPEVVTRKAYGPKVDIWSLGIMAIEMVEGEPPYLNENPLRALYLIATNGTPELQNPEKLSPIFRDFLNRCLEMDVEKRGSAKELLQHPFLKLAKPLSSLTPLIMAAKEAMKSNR
Sequence of 140 purified human kinases (Homo sapiens, UniProt Q06187) (Q06187 whole entry): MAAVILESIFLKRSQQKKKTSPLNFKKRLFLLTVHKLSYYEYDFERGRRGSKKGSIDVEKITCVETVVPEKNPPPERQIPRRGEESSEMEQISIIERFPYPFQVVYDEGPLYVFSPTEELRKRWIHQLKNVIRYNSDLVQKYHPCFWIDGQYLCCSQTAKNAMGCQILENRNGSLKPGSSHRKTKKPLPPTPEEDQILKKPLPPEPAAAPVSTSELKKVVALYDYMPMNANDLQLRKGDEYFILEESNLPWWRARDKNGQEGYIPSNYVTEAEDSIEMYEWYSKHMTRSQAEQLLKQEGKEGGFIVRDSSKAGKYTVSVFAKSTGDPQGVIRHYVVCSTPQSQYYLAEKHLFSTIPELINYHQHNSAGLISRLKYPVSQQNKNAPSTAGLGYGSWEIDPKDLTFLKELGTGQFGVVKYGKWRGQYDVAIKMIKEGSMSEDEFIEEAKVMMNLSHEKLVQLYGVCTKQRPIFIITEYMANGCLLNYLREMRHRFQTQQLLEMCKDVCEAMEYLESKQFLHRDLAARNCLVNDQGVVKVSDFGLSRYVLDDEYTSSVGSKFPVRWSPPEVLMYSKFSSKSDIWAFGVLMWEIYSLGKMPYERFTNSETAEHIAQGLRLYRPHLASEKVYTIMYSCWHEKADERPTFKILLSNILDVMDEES
Sequence of 140 purified human kinases (Homo sapiens, UniProt P06239) (P06239 whole entry): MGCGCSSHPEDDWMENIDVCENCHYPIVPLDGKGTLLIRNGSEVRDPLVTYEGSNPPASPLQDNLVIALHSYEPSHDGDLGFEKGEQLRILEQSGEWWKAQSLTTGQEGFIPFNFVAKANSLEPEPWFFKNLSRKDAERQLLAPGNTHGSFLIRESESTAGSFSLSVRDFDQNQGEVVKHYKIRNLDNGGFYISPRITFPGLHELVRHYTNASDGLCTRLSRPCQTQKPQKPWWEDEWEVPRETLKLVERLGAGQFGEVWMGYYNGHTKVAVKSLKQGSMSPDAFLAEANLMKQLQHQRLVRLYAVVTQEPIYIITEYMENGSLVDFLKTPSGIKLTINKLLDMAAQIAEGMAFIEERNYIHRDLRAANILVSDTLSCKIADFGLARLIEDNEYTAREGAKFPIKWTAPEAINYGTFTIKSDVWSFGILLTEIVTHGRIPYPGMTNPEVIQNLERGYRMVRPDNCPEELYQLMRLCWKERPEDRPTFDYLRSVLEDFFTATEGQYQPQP

`[Cu+2].[Cu+2].[Cu+2].c1ccc(-c2csc(NCCN(CCNc3nc(-c4ccccn4)cs3)CCNc3nc(-c4ccccn4)cs3)n2)nc1.c1ccc(-c2csc(NCCN(CCNc3nc(-c4ccccn4)cs3)CCNc3nc(-c4ccccn4)cs3)n2)nc1` [[L2Cu3]6+] was tested, and the “% Inhibition Run 1” value [1] was 64.9%, the “% Inhibition Run 2” value [1] was 65.8% and the “% Inhibition, Mean” value [1] was 65%. The mean % activity [1] was 35%, the “% activity” value ([1]; Run 1) was 35.1% and the “% activity” value ([1]; Run 2) was 34.2%. For the same compound, the “% Inhibition Run 1” value ([2]; FGF-R1) was 63.7%, the “% Inhibition Run 2” value ([2]; FGF-R1) was 61.4% and the “% Inhibition, Mean” value ([2]; FGF-R1) was 63%. For the same compound, the mean % activity ([2]; FGF-R1) was 37%, the “% activity” value ([2]; FGF-R1, Run 1) was 36.3% and the “% activity” value ([2]; FGF-R1, Run 2) was 38.6%. For the same compound, the “% Inhibition Run 1” value ([3]; EPH-B4) was 53.6%, the “% Inhibition Run 2” value ([3]; EPH-B4) was 47.1% and the “% Inhibition, Mean” value ([3]; EPH-B4) was 50%. The mean % activity ([3]; EPH-B4) was 50%, the “% activity” value ([3]; EPH-B4, Run 1) was 46.4% and the “% activity” value ([3]; EPH-B4, Run 2) was 52.9%. For the same compound, the “% Inhibition Run 1” value [4] was 88.8%, the “% Inhibition Run 2” value [4] was 82.3% and the “% Inhibition, Mean” value [4] was 86%. For the same compound, the mean % activity [4] was 14%, the “% activity” value ([4]; Run 1) was 11.2% and the “% activity” value ([4]; Run 2) was 17.7%. For the same compound, the “% Inhibition Run 1” value ([5]; PAK2) was 44.4%, the “% Inhibition Run 2” value ([5]; PAK2) was 32.1% and the “% Inhibition, Mean” value ([5]; PAK2) was 38%. The mean % activity ([5]; PAK2) was 62%, the “% activity” value ([5]; PAK2, Run 1) was 55.6% and the “% activity” value ([5]; PAK2, Run 2) was 67.9%. The “% Activation, Mean value” ([6]; TTBK1) was 9%, the “% Inhibition Run 1” value ([6]; TTBK1) was 10% and the “% Inhibition Run 2” value ([6]; TTBK1) was -27.8%. For the same compound, the “% Inhibition, Mean” value ([6]; TTBK1) was -9%, the mean % activity ([6]; TTBK1) was 109% and the “% activity” value ([6]; TTBK1, Run 1) was 90%. The “% activity” value ([6]; TTBK1, Run 2) was 127.8%, the “% Inhibition Run 1” value [7] was 49.3% and the “% Inhibition Run 2” value [7] was 39.6%. For the same compound, the “% Inhibition, Mean” value [7] was 44%, the mean % activity [7] was 56% and the “% activity” value ([7]; Run 2) was 60.4%.
In the case of `CC(=O)[O-].CC(=O)[O-].CC(=O)[O-].CC(=O)[O-].CC(=O)[O-].CC(=O)[O-].[Zn+2].[Zn+2].[Zn+2].c1ccc(-c2csc(NCCN(CCNc3nc(-c4ccccn4)cs3)CCNc3nc(-c4ccccn4)cs3)n2)nc1.c1ccc(-c2csc(NCCN(CCNc3nc(-c4ccccn4)cs3)CCNc3nc(-c4ccccn4)cs3)n2)nc1` [[L2Zn3]6+], the “% Inhibition, Mean” value [1] was 44%, the “% Inhibition, Run 1 / Run 2” value [1] was 51% and 36% and the mean % activity [1] was 56%. The “% activity” value ([1]; duplicate runs) was 49% and 64%, the “% Inhibition, Mean” value ([2]; FGF-R1) was 82% and the “% Inhibition, Run 1 / Run 2” value ([2]; FGF-R1) was 88% and 76%. For the same compound, the mean % activity ([2]; FGF-R1) was 18%, the “% Activity inhibition Mean” value ([2]; FGF-R1, 10 µM) was 81.5% and the “% Activity inhibition Run 1” value ([2]; FGF-R1, 10 µM) was 87%. The “% Activity inhibition Run 2” value ([2]; FGF-R1, 10 µM) was 76%, the “% Activity remaining Run 1” value ([2]; FGF-R1, 10 µM) was 13% and the “% Activity remaining Run 2” value ([2]; FGF-R1, 10 µM) was 24%. The “% activity” value ([2]; FGF-R1, duplicate runs) was 13% and 24%, the “% Inhibition, Mean” value ([3]; EPH-B4) was 52% and the “% Inhibition, Run 1 / Run 2” value ([3]; EPH-B4) was 52%. For the same compound, the mean % activity ([3]; EPH-B4) was 48%, the “% activity” value ([3]; EPH-B4, duplicate runs) was 48% and the “% Inhibition, Mean” value [4] was 47%. For the same compound, the “% Inhibition, Run 1 / Run 2” value [4] was 56% and 39%, the mean % activity [4] was 53% and the “% activity” value ([4]; duplicate runs) was 45% and 61%. For the same compound, the “% Inhibition, Mean” value ([5]; PAK2) was 22%, the “% Inhibition, Run 1 / Run 2” value ([5]; PAK2) was 23% and 21% and the mean % activity ([5]; PAK2) was 78%. For the same compound, the “% activity” value ([5]; PAK2, duplicate runs) was 77% and 79%, the “% Activation, Mean value” ([6]; TTBK1) was 8% and the “% Inhibition, Mean” value ([6]; TTBK1) was -8%. For the same compound, the mean % activity ([6]; TTBK1) was 108%, the “% activity” value ([6]; TTBK1, duplicate runs) was 97% and 119% and the “% Inhibition, Mean” value [7] was 5.35%. The “% Inhibition, Run 1 / Run 2” value [7] was 5% and 6%, the mean % activity [7] was 95% and the “% activity” value ([7]; duplicate runs) was 95% and 94%.
